Source: ChEMBL document CHEMBL1201862, “PubChem BioAssay data set” (2004)
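Tested at 5 concentrations; 48 h exposure; 96-well plates; endpoints linearly interpolated, else capped at highest concentration. Abbreviation: GI50, concentration required for 50% inhibition of growth.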 Calls of active or inactive are those of the source. Cut-off read from the data, not from the text of the source: active = GI50 up to about 1.1 µM and inactive = higher.

Legend:
Assay in all cases: NCI anticancer screen, dose series, 48 h
UACC-62 = tested on: UACC-62
SK-MEL-2 = tested on: SK-MEL-2
DU-145 = tested on: DU-145
HOP-62 = tested on: HOP-62
A549 = tested on: A549
SN12C = tested on: SN12C
TK-10 = tested on: TK-10
PC-3 = tested on: PC-3
HCT-15 = tested on: HCT-15
HT-29 = tested on: HT-29
COLO 205 = tested on: COLO 205
SF-268 = tested on: SF-268
IGROV-1 = tested on: IGROV-1
HCT-116 = tested on: HCT-116
SR = tested on: SR
NCI-H226 = tested on: NCI-H226
SF-295 = tested on: SF-295
OVCAR-3 = tested on: OVCAR-3
KM12 = tested on: KM12
NCI/ADR-RES = tested on: NCI/ADR-RES
HCC 2998 = tested on: HCC 2998
NCI-H460 = tested on: NCI-H460
OVCAR-8 = tested on: OVCAR-8
UACC-257 = tested on: UACC-257
Malme-3M = tested on: Malme-3M
M14 = tested on: M14
SW-620 = tested on: SW-620
MDA-MB-231 = tested on: MDA-MB-231
EKVX = tested on: EKVX
SK-OV-3 = tested on: SK-OV-3
SK-MEL-5 = tested on: SK-MEL-5
T47D = tested on: T47D
SNB-19 = tested on: SNB-19
ACHN = tested on: ACHN
NCI-H23 = tested on: NCI-H23
CAKI-1 = tested on: CAKI-1
U-251 = tested on: U-251
MOLT-4 = tested on: MOLT-4
NCI-H522 = tested on: NCI-H522
K562 = tested on: K562
UO-31 = tested on: UO-31
786-0 = tested on: 786-0
MDA-MB-435 = tested on: MDA-MB-435
SF-539 = tested on: SF-539
RPMI-8226 = tested on: RPMI-8226
OVCAR-5 = tested on: OVCAR-5
Hs-578T = tested on: Hs-578T
RXF 393 = tested on: RXF 393
MDA-N = tested on: MDA-N
SK-MEL-28 = tested on: SK-MEL-28
BT-549 = tested on: BT-549
HOP-92 = tested on: HOP-92
SNB-75 = tested on: SNB-75

Question: What does the source list for `Oc1ccccc1/C=N/N1C(=S)N(C23CC4CC(CC(C4)C2)C3)C(=N\c2ccccc2)/C1=N/c1ccccc1`?
Answer: GI50 (UACC-62): > 100 µM (inactive); GI50 (SK-MEL-2): > 100 µM (inactive); GI50 (DU-145): > 100 µM (inactive); GI50 (HOP-62): > 100 µM (inactive); GI50 (A549): > 100 µM (inactive); GI50 (SN12C): > 100 µM (inactive); GI50 (TK-10): > 100 µM (inactive); GI50 (PC-3): 8.38 µM (inactive); GI50 (HCT-15): > 100 µM; GI50 (HT-29): 29.6 µM (inactive); GI50 (COLO 205): 94.4 µM (inactive); GI50 (SF-268): > 100 µM (inactive); GI50 (IGROV-1): > 100 µM (inactive); GI50 (HCT-116): 14.1 µM (inactive); GI50 (SR): 43.3 µM (inactive); GI50 (NCI-H226): > 100 µM (inactive); GI50 (SF-295): > 100 µM (inactive); GI50 (OVCAR-3): > 100 µM (inactive); GI50 (KM12): > 100 µM (inactive); GI50 (NCI/ADR-RES): > 100 µM (inactive); GI50 (HCC 2998): > 100 µM (inactive); GI50 (NCI-H460): 71.8 µM (inactive); GI50 (OVCAR-8): > 100 µM (inactive); GI50 (UACC-257): > 100 µM (inactive); GI50 (Malme-3M): > 100 µM (inactive); GI50 (M14): > 100 µM (inactive); GI50 (SW-620): > 100 µM (inactive); GI50 (MDA-MB-231): 8.04 µM (inactive); GI50 (EKVX): > 100 µM (inactive); GI50 (SK-OV-3): > 100 µM (inactive); GI50 (SK-MEL-5): 23.4 µM (inactive); GI50 (T47D): 9.35 µM (inactive); GI50 (SNB-19): 77.4 µM (inactive); GI50 (ACHN): 50 µM (inactive); GI50 (NCI-H23): > 100 µM (inactive); GI50 (CAKI-1): > 100 µM (inactive); GI50 (U-251): 76.6 µM (inactive); GI50 (MOLT-4): 3.92 µM (inactive); GI50 (NCI-H522): 12.8 µM (inactive); GI50 (K562): 4.46 µM (inactive); GI50 (UO-31): > 100 µM (inactive); GI50 (786-0): > 100 µM (inactive); GI50 (MDA-MB-435): > 100 µM (inactive); GI50 (SF-539): > 100 µM (inactive); GI50 (RPMI-8226): 6.15 µM (inactive); GI50 (OVCAR-5): > 100 µM (inactive); GI50 (Hs-578T): > 100 µM (inactive); GI50 (RXF 393): 82.8 µM (inactive); GI50 (MDA-N): > 100 µM (inactive); GI50 (SK-MEL-28): > 100 µM (inactive); GI50 (BT-549): 38.9 µM (inactive); GI50 (HOP-92): 29.7 µM (inactive)

Question: For `CC(NC(=O)C(OC(=O)C(C)NC(=O)OC(C)(C)C)C(C)C)C(=O)OC(C(=O)O)C(C)C` (stereo not drawn), which GI50 (UACC-62) is on record?
Answer: > 100 µM (inactive)

Question: And the GI50 (SK-MEL-2)?
Answer: > 100 µM (inactive)

Question: And the GI50 (DU-145)?
Answer: > 100 µM (inactive)

Question: What about the GI50 (HOP-62) of the same compound?
Answer: > 100 µM (inactive)

Question: And the GI50 (A549)?
Answer: > 100 µM (inactive)

Question: What about the GI50 (SN12C) of the same compound?
Answer: > 100 µM (inactive)

Question: And the GI50 (TK-10)?
Answer: > 100 µM (inactive)

Question: And the GI50 (SNB-75)?
Answer: > 100 µM (inactive)

Question: What about the GI50 (PC-3) of the same compound?
Answer: > 100 µM (inactive)

Question: What about the GI50 (HCT-15) of the same compound?
Answer: > 100 µM

Question: And the GI50 (HT-29)?
Answer: > 100 µM (inactive)

Question: And the GI50 (COLO 205)?
Answer: > 100 µM (inactive)

Question: And the GI50 (SF-268)?
Answer: > 100 µM (inactive)

Question: What about the GI50 (IGROV-1) of the same compound?
Answer: > 100 µM (inactive)

Question: What about the GI50 (SR) of the same compound?
Answer: > 100 µM (inactive)

Question: What about the GI50 (NCI-H226) of the same compound?
Answer: > 100 µM (inactive)

Question: What about the GI50 (SF-295) of the same compound?
Answer: > 100 µM (inactive)

Question: And the GI50 (OVCAR-3)?
Answer: > 100 µM (inactive)

Question: What about the GI50 (KM12) of the same compound?
Answer: > 100 µM (inactive)

Question: And the GI50 (NCI/ADR-RES)?
Answer: > 100 µM (inactive)

Question: And the GI50 (HCC 2998)?
Answer: > 100 µM (inactive)

Question: And the GI50 (NCI-H460)?
Answer: > 100 µM (inactive)

Question: And the GI50 (OVCAR-8)?
Answer: > 100 µM (inactive)

Question: And the GI50 (UACC-257)?
Answer: > 100 µM (inactive)

Question: What about the GI50 (Malme-3M) of the same compound?
Answer: > 100 µM (inactive)

Question: What about the GI50 (M14) of the same compound?
Answer: > 100 µM (inactive)

Question: And the GI50 (SW-620)?
Answer: > 100 µM (inactive)

Question: What about the GI50 (MDA-MB-231) of the same compound?
Answer: > 100 µM (inactive)

Question: And the GI50 (EKVX)?
Answer: > 100 µM (inactive)

Question: And the GI50 (SK-OV-3)?
Answer: > 100 µM (inactive)

Question: And the GI50 (SK-MEL-5)?
Answer: > 100 µM (inactive)

Question: And the GI50 (T47D)?
Answer: > 100 µM (inactive)

Question: And the GI50 (SNB-19)?
Answer: > 100 µM (inactive)

Question: What about the GI50 (ACHN) of the same compound?
Answer: > 100 µM (inactive)

Question: What about the GI50 (CAKI-1) of the same compound?
Answer: > 100 µM (inactive)

Question: What about the GI50 (U-251) of the same compound?
Answer: > 100 µM (inactive)

Question: What about the GI50 (MOLT-4) of the same compound?
Answer: > 100 µM (inactive)

Question: What about the GI50 (NCI-H522) of the same compound?
Answer: > 100 µM (inactive)

Question: And the GI50 (K562)?
Answer: > 100 µM (inactive)

Question: What about the GI50 (UO-31) of the same compound?
Answer: > 100 µM (inactive)

Question: And the GI50 (786-0)?
Answer: > 100 µM (inactive)

Question: What about the GI50 (MDA-MB-435) of the same compound?
Answer: > 100 µM (inactive)

Question: What about the GI50 (SF-539) of the same compound?
Answer: > 100 µM (inactive)

Question: What about the GI50 (RPMI-8226) of the same compound?
Answer: > 100 µM (inactive)

Question: What about the GI50 (OVCAR-5) of the same compound?
Answer: > 100 µM (inactive)

Question: What about the GI50 (Hs-578T) of the same compound?
Answer: > 100 µM (inactive)

Question: What about the GI50 (RXF 393) of the same compound?
Answer: > 100 µM (inactive)

Question: What about the GI50 (MDA-N) of the same compound?
Answer: > 100 µM (inactive)

Question: And the GI50 (SK-MEL-28)?
Answer: > 100 µM (inactive)

Question: And the GI50 (BT-549)?
Answer: > 100 µM (inactive)

Question: What about the GI50 (HOP-92) of the same compound?
Answer: > 100 µM (inactive)
